# Data published in US6518014B1, “Hepadnavirus cores” (priority 1996, dated 2003).
# *1 amine or outer side, *2 acyl side, *3 side chain or, on linkers, in order; H or OH if unused. Where a SMILES comes first, the peptide text is derived from it. Bridges are numbered along the chain shown (N, C = ends). Roman numbers before positions name the chains, in order. [ ]: non-standard residue; d: D form. Actinocin(9to1) = Cc1c2oc3c(C)ccc(C(=O)[*:1])c3nc-2c(C(=O)[*:2])c(N)c1=O; NMeV = CN[C@H](C(=O)O)C(C)C; Sar = CNCC(=O)O
# Assays:
# hepadnavirus polymerase [1] = molecular target: T1, hepadnavirus polymerase (Hepatitis B virus genotype D subtype ayw, UniProt P03156); assay: In vitro polymerase activity of isolated core particles in the presence of Actinomycin D; type: biochemical; details: 100 μg/ml Actinomycin D; (−) strand synthesis from an RNA template
# T1 construct: made in house; host or cells: Spodoptera frugiperda SF9 cells infected with recombinant baculoviruses (pVL1393-derived)
# T1 sequence (P03156 whole entry): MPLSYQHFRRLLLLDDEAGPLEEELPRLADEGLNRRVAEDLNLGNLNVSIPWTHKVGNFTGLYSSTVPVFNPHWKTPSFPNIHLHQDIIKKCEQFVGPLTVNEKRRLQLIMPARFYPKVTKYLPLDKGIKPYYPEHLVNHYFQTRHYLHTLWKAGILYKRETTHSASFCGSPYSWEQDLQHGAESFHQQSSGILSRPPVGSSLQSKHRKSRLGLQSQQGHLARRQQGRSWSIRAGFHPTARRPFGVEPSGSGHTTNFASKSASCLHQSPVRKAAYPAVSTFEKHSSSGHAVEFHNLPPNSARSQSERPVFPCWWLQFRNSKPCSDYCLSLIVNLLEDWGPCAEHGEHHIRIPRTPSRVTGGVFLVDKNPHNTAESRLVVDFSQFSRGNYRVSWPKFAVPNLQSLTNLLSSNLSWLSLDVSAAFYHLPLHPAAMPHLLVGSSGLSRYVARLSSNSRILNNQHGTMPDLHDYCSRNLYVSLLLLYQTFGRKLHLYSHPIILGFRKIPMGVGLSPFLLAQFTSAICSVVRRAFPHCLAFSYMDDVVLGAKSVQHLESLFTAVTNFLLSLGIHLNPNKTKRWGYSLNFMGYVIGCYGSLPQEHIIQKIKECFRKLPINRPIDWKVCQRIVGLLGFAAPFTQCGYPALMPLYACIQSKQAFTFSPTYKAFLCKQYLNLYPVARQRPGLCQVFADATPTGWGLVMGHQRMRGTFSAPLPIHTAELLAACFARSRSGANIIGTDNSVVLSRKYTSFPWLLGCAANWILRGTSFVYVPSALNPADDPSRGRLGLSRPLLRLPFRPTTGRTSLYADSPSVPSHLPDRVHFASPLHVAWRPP
# Text: This observation further confirms that the primary activity observed is the (−) strand synthesis from an RNA template. Site-directed mutagenesis has been used to change an tyr-met-asp-asp (SEQ ID NO:16) sequence in the HBV polymerase active site to a tyr-met-his-ala (SEQ ID NO:17) sequence, a mutation that has been previously shown to destroy polymerase activity. See, for example, Seifer and Strandring, Intervirology 38:295-303,1995; Wang & Seeger, Cell 71:663-670, 1992. For an analogous active site mutation, see Radziwill et al., J. Virol. 64:613-620,1990. When this mutant is used in the methods of the invention to create core particles, the core particles lack polymerase activity. This observation confirms that it is indeed hepadnavirus polymerase activity that is being observed in the core particles of the invention.
# A 96 well plate was prepared with wells containing either various dilutions of test sample containing a prospective bioactive agent, a positive control, a known hepadnavirus polymerase inhibitor, or an EDTA sample for which no polymerase activity should be detected and which thus indicates, after the assay processing, non-specific, background radioactivity. The plate has eight rows of wells, A through H, and twelve columns of wells, 1 through 12. […]
# The background radioactivity determined from column 12, wells E through H, was subtracted from all of the remaining values. […]
# hepadnavirus polymerase [2] = molecular target: T1, hepadnavirus polymerase; assay: Endogenous polymerase assay (EPA) with size analysis of endogenously labeled DNA from nucleocapsids, actinomycin D comparative sample; type: biochemical; details: 80-100 μg per ml actinomycin D in comparative sample
# Method: The beads were resuspended in 50 μl EPA reaction mix (50 mM Tris-HCl, pH 7.4, 75 mM NH4Cl, 1 mM EDTA, 20 mM MgCl2, 0.1 mM β-mercaptoethanol, 0.5% Tween 20, 50 μM dNTP mix (Ultrapure, Pharmacia, Uppsala, Sweden)), and the resulting suspension was incubated at 37° C. for 6 h.
# The beads were washed once with 800 μl IP wash buffer (50 mM Tris-HCl, pH 7.4, 150 mM NaCl, 5 mM EDTA, 1% Triton-X 100, 0.02% SDS) and resuspended in 50 μl TNE (10 mM Tris-HCl, pH 7.4, 150 mM NaCl, 1 mM EDTA) containing 1% SDS and 10 mM dithiothreitol. The beads were then heated to boiling temperature (100 C) for 7 min to disintegrate the capsids, and the supernates isolated by centrifugation and transferred to microfuge cups, with the supemates from […] parallel reactions combined in each microfuge cup. […]
# The synthesis that is actinomycin D sensitive is measured with the above-described EPA assay where 80-100 μg per ml of actinomycin D are added in a comparative sample.
# SF9 cells were harvested 90 hours postinfection with recombinant viruses (a) BV-ECPE, (b) BV-EC+BV-PDE, (c) BV-EC and (d) BV-PDE. […] Immunoprecipitated core particles were subjected to EPA as described above, and deproteinized nucleic acids isolated from the assay samples were analyzed on a 1% agarose gel, and visualized by autoradiography. […]
smiles,measurement,setting,value
"Cc1c2oc3c(C)ccc(C(=O)N[C@@H]4C(=O)N[C@H](C(C)C)C(=O)N5CCC[C@H]5C(=O)N(C)CC(=O)N(C)[C@@H](C(C)C)C(=O)O[C@@H]4C)c3nc-2c(C(=O)N[C@@H]2C(=O)N[C@H](C(C)C)C(=O)N3CCC[C@H]3C(=O)N(C)CC(=O)N(C)[C@@H](C(C)C)C(=O)O[C@@H]2C)c(N)c1=O [Actinomycin D] (I: T[dV]P[Sar][NMeV] / II: T[dV]P[Sar][NMeV]; ester I:1-I:C, II:1-II:C; linker I:N-II:N via Actinocin(9to1))",polymerase activity exhibited by core particles in the presence of Actinomycin D,hepadnavirus polymerase [1],active
same,"actinomycin D sensitivity of EPA product nucleic acids, trans cores",hepadnavirus polymerase [2]; BV-EC+BV-PDE (trans) cores from SF9 cells,not the trans products
same,"actinomycin D sensitivity of EPA product nucleic acids, cis cores",hepadnavirus polymerase [2]; BV-ECPE (cis) cores from SF9 cells,mostly actinomycin D sensitive
